Test results: ChEMBL document CHEMBL1201862, “PubChem BioAssay data set” (2004)
Activity calls are given as the source filed them.

Experiments:
Cysteine protease ATG4B = molecular target: T1, Cysteine protease ATG4B (Homo sapiens, UniProt Q9Y4P1); type: functional;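 note: Fluorescence-based dose-response confirmation assay measuring inhibition of ATG4B activity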
T1 sequence (Q9Y4P1 whole entry): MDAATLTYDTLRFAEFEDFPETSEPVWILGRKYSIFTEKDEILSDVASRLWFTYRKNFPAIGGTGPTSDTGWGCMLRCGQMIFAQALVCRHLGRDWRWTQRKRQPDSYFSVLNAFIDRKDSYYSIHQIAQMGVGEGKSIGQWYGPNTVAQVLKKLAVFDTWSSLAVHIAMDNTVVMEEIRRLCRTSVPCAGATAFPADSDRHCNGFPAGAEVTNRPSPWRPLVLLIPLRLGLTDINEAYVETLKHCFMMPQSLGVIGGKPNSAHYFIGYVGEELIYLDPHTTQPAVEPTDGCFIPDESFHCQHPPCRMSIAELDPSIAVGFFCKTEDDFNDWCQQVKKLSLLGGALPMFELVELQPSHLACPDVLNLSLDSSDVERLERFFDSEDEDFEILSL

Phospholipase A2 = Phospholipase A2 (Homo sapiens, UniProt P04054); type: functional;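 note: confirmatory dose-response counterscreen on phospholipase A2, testing hits that came from an ultra-high-throughput screen for ATG4B inhibitors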
[1] = molecular target: T2, Sentrin-specific protease 8 (Homo sapiens, UniProt Q96LD8); assay: inhibition of human SENP8 cleavage activity – biochemical, luminescence, SAR follow-up (AID 504501); type: functional
T2 sequence (Q96LD8 whole entry): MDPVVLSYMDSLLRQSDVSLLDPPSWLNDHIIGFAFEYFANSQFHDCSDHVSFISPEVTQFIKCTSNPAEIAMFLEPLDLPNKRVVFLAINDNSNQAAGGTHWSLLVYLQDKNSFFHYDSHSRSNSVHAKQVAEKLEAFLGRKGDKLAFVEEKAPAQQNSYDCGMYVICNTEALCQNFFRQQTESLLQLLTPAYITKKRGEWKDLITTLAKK

Caspase-3 = molecular target: T3, Caspase-3 (Homo sapiens, UniProt P42574); assay: SAR Analysis of small molecule inhibitors of Sentrin-specific proteases (SENPs) using a Caspase-3 Selectivity assay. [Related pubchem assays (depositor defined):AID2540, AID2599, AID434973, AID489001]; type: functional
T3 sequence (P42574 whole entry): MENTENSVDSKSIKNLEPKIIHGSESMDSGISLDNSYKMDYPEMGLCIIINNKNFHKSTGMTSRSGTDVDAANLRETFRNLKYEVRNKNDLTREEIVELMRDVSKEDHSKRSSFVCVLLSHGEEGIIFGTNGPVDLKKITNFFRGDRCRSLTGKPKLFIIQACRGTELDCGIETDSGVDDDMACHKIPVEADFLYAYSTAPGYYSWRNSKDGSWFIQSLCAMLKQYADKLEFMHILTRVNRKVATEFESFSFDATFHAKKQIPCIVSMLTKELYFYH

[2] = molecular target: T4, Sentrin-specific protease 7 (Homo sapiens, UniProt Q9BQF6); assay: inhibition of human SENP7 cleavage activity – biochemical, luminescence, SAR follow-up (AID 504497); type: functional
T4 sequence (Q9BQF6 whole entry): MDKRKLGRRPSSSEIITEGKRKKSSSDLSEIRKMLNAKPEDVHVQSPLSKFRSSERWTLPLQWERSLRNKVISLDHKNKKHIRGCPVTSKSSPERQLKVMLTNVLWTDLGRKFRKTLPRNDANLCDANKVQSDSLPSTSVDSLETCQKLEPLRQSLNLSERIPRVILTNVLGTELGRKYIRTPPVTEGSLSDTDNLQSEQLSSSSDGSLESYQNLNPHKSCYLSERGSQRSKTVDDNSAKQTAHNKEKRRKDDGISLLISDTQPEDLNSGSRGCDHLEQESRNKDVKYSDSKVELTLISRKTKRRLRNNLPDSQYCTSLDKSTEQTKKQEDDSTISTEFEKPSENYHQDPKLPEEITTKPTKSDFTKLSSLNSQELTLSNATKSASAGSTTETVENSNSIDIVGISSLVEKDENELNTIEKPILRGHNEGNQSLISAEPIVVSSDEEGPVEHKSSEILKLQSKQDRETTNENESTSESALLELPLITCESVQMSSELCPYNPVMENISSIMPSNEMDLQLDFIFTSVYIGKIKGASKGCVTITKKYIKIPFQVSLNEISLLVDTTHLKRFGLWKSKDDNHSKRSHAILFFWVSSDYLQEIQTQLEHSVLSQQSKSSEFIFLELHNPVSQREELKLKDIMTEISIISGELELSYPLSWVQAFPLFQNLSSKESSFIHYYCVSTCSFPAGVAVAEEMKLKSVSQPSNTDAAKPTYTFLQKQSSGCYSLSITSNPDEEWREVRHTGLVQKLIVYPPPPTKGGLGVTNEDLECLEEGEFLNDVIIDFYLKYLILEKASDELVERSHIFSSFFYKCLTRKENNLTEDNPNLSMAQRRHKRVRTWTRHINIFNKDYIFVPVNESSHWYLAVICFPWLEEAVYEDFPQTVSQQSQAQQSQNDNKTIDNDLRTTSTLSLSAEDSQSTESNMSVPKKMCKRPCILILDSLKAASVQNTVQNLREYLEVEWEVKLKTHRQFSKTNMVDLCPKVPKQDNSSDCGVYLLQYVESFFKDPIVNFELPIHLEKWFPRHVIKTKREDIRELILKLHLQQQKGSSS

[3] = molecular target: T5, Sentrin-specific protease 6 (Homo sapiens, UniProt Q9GZR1); assay: SAR Analysis of small molecule inhibitors of Sentrin-specific protease 6 (SENP6) using a Luminescent assay. [Related pubchem assays (depositor defined):AID2582, AID2599]; type: functional
T5 sequence (Q9GZR1 whole entry): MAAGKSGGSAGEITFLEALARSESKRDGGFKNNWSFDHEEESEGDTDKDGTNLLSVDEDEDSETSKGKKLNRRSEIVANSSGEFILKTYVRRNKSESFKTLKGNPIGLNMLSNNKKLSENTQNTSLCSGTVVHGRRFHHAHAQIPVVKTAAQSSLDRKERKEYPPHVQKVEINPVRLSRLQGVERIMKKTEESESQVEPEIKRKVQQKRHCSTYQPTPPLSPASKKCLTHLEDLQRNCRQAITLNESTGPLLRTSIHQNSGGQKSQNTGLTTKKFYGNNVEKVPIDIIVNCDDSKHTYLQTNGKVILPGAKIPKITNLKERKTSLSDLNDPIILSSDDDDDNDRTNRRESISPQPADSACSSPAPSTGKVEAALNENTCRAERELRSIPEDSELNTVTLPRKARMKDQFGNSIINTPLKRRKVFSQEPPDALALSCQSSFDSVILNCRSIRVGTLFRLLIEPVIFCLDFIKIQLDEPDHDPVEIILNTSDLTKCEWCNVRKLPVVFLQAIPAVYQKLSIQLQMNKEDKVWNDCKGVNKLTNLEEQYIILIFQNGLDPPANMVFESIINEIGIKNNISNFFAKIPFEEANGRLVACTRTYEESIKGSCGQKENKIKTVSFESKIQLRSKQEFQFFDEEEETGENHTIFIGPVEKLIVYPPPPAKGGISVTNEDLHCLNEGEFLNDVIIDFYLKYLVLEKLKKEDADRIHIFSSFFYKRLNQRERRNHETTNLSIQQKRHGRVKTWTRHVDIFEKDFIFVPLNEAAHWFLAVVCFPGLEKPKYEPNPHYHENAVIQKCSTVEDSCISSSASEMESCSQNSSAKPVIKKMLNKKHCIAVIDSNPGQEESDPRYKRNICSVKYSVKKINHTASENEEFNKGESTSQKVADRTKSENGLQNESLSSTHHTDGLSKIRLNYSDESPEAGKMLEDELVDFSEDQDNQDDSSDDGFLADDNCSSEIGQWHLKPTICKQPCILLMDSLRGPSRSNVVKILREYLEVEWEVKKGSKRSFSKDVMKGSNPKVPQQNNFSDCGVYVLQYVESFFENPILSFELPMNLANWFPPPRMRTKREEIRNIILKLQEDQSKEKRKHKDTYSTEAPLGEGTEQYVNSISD

Genome polyprotein = Genome polyprotein (dengue virus type 2, UniProt P29990); assay: flavivirus cap methylation enzyme inhibition – biochemical, confirmation dose response, primary screen (AID 588689); type: functional
[4] = molecular target: T6, Replicative DNA helicase DnaB (Mycobacterium tuberculosis, UniProt P9WMR3); assay: DnaB intein splicing inhibitors, dose response, biochemical, cell-free fluorescence (AID 449749); type: functional
T6 sequence (P9WMR3 whole entry): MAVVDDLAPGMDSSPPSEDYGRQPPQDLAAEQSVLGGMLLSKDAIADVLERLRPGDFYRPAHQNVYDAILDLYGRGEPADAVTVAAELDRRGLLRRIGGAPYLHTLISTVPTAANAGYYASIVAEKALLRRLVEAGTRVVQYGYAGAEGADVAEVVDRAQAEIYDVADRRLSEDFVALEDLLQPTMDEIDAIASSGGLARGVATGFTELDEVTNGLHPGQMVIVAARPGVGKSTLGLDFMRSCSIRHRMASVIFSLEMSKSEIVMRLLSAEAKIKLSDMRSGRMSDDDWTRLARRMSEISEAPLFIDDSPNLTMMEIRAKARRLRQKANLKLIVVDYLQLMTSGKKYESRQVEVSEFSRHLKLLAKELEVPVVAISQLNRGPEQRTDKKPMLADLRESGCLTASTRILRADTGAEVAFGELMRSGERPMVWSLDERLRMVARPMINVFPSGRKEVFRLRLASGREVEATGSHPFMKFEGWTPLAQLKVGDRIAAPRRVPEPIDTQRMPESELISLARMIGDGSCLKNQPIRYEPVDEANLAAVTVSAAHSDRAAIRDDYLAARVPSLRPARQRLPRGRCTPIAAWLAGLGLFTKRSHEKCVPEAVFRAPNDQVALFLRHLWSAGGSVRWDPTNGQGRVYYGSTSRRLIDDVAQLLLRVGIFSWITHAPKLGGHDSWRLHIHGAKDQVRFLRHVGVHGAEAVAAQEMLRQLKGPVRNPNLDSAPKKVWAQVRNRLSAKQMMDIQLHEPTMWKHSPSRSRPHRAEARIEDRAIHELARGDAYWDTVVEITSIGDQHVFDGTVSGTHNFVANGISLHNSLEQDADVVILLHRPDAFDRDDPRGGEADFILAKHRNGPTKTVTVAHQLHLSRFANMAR

Vero = assay: viability of Vero cells under compound – cytotoxicity control for flavivirus capping enzyme inhibitors (AID 588742); type: functional; settings: Chlorocebus sabaeus
Protein RecA = molecular target: T7, Protein RecA (Mycobacterium tuberculosis, UniProt P9WHJ3); assay: Fluorescence Cell-Free Homogeneous Dose Retest to Identify Inhibitors of RecA-Intein Splicing Activity. [Related pubchem assays (depositor defined):AID2097, AID2223, AID489010, AID492950]; type: functional
T7 sequence (P9WHJ3 whole entry): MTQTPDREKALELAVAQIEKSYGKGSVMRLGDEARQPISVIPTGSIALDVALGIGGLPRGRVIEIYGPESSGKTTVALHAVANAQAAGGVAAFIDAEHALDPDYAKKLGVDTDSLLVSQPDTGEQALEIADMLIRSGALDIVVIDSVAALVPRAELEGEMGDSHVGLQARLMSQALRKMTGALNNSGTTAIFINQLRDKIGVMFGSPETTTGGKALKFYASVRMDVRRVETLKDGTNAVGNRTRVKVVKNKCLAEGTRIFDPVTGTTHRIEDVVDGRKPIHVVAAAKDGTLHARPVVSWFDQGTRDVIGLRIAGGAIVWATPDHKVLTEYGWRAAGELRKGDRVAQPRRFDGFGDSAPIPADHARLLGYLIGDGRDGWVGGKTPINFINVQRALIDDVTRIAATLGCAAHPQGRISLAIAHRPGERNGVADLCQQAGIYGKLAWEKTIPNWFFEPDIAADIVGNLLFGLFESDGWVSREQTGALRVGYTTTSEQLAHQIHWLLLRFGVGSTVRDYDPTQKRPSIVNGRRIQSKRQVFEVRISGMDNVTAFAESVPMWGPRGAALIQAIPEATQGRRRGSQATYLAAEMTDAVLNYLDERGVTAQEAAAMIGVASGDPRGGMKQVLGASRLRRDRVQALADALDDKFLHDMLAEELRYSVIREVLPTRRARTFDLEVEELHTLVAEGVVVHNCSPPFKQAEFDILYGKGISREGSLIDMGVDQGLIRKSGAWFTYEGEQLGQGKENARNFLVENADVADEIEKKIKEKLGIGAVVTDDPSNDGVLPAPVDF

Trypsin = Trypsin (Sus scrofa, UniProt P00761); assay: trypsin protease activity blockade – biochemical, quenched peptide fluorescence, cherry-pick, selectivity assay for Rce1 protease inhibitor project, dose response (AID 488789)
CAAX prenyl protease 2 = molecular target: T8, CAAX prenyl protease 2 (Saccharomyces cerevisiae S288c, UniProt Q03530); type: biochemical
T8 sequence (Q03530 whole entry): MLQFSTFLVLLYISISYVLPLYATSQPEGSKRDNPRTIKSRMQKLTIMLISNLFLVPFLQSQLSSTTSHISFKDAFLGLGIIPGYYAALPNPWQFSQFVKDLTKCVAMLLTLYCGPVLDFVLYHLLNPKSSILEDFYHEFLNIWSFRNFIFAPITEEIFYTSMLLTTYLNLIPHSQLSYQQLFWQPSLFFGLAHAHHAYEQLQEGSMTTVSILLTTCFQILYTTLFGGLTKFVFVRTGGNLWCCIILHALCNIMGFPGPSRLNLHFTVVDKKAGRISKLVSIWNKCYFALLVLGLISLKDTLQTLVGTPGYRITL

Sequence of Phospholipase A2 (P04054 whole entry): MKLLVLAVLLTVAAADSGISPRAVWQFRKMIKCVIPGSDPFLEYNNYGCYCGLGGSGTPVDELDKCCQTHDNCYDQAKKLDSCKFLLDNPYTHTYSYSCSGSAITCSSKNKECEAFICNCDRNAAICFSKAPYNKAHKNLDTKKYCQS
Sequence of Genome polyprotein (P29990 2492-3391 limits assumed): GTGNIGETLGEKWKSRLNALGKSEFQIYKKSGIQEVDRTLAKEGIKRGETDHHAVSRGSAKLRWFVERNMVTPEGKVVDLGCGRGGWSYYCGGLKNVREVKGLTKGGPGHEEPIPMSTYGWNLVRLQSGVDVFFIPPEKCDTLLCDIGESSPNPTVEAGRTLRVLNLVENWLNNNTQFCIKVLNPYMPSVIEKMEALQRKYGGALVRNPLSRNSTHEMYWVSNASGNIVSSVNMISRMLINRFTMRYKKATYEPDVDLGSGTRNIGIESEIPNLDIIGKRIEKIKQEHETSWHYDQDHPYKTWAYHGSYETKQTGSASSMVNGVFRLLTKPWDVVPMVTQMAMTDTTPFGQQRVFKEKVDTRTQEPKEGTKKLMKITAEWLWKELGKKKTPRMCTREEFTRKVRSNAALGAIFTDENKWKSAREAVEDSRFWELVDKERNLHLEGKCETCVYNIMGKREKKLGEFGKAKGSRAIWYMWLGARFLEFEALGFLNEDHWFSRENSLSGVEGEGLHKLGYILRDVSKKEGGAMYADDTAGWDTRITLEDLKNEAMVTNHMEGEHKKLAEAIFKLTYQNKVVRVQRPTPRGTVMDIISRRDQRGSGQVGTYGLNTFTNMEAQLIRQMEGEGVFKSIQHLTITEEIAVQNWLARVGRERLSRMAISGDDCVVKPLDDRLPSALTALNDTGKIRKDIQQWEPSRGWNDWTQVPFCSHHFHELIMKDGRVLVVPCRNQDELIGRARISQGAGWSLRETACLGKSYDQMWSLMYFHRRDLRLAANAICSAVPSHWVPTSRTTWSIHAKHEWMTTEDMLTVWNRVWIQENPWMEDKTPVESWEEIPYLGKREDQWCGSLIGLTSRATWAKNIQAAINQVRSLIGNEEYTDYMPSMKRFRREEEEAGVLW
Sequence of Trypsin (P00761 whole entry): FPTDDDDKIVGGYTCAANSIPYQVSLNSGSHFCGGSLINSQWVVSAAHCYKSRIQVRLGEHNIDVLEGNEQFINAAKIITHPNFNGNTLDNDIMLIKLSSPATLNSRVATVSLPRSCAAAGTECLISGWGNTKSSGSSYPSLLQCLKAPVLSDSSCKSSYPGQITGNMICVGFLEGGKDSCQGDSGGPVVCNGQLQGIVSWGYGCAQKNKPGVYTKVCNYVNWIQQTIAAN

Compound	IC50 [1]	IC50 (Caspase-3)	IC50 [2]	IC50 [3]	also measured
CC(C)(C)c1ccccc1/N=C/c1ccc2ccccc2n1	–	–	–	–	IC50 (Cysteine protease ATG4B): 14.2 µM (active); IC50 (Phospholipase A2): 16.2 µM (active)
Cc1cc(NC(=O)COC(=O)CNC(=O)c2sc3ccccc3c2Cl)no1	> 99 µM (inactive)	> 99 µM (inactive)	> 99 µM (inactive)	> 99 µM (inactive)	–
Cc1nn(Cc2ccccc2)c2c1C(c1cccc(Cl)c1)C(C#N)=C(N)O2 (centres undefined)	–	–	–	–	IC50 (Genome polyprotein): > 100 µM (active); AC50 [4]: 5.7 µM (active); CC50 (Vero): > 40 µM (active); EC50 (Protein RecA): 3.26 µM (active)
Cc1csc(C(=O)Nc2nc3ccc(Cl)cc3s2)c1	> 99 µM (inactive)	36 µM (active)	89 µM (active)	> 99 µM (inactive)	–
Nc1nn(-c2ccccc2)c(N)c1N=Nc1ccccc1	–	–	–	–	IC50 (Cysteine protease ATG4B): 11.9 µM (active); IC50 (Phospholipase A2): 9 µM (active)
COc1ccc2nc(NC(=O)c3ccc4c(c3)OCCO4)sc2c1	> 99 µM (inactive)	> 99 µM (inactive)	> 99 µM (inactive)	> 99 µM (inactive)	–
O=C(O)c1cccc(CN2C(=O)S/C(=C/c3cccc([N+](=O)[O-])c3)C2=O)c1	–	–	–	–	IC50 (Genome polyprotein): 83.2 µM (active); CC50 (Vero): > 40 µM (active)
O=C1CSC(c2cn(-c3ccccc3)nc2-c2cc3ccccc3oc2=O)N1Cc1ccco1 (centres undefined)	–	–	–	–	AC50 (Trypsin): 9.09 µM (active); AC50 (CAAX prenyl protease 2): 30.8 µM (active)
